Marks after values point to notes of the source that are not given here.
Columns and labels:
[1] = tested on: Porcine atria myofibrils (atrial myosin ATPase); assay: Myofibril ATPase assay, porcine atria myofibrils; type: biochemical; conditions: porcine atria myofibrils
Protocol: (§1) Example 1. Myofibril ATPase Assay
(§2) Myofibril ATPase assays are known in the art to be useful in evaluating small molecules for the treatment of HCM and other cardiac indications. Myosin ATPase activity is assessed by using a coupled reaction system, in which ADP generated by the myosin ATPase function is coupled to the disappearance of NADH through the pyruvate kinase/lactate dehydrogenase (PK-LDH) system. ATPase activity produces ADP, which is used as a substrate for PK to produce pyruvate and regenerate ATP. The pyruvate is then used as a substrate by LDH to oxidize NADH to NAD+. The rate of the reaction is monitored through the time-dependent disappearance of NADH using absorbance at 340 nm, which, when the couple system is in stoichiometric excess, is directly correlated to the ATPase activity of the myosin. Inhibition of ATPase activity by the assayed compounds is indicated by a reduced rate of NADH loss, relative to vehicle-treated controls, over the experimental time window. Activation of ATPase activity by the assayed compounds is indicated by an increased rate of NADH loss, relative to vehicle-treated controls, over the experimental time window. Rabbit Psoas, Porcine atria, and Porcine ventricle are the primary sources of myofibril material.
(§3) Materials: The following stock solutions and reagents were used in the Myofibril ATPase Assay:
(§4) Stock Solutions of pCa buffer. Combine PIPES, CaCl2, and EGTA solutions with water. Adjust pH to 7.0 and bring final volume to 100 mL.
(§5) Buffer A & Buffer B. Prepare buffers A and B according to the table below.
(§6) Myofibril ATPase Assay Procedure: BSA, ATP, NADH, PEP, and DTT solutions were thawed at room temperature, then transferred to ice. Pellet-frozen myofibrils were transferred with approximately twice the required volume into a sufficiently large tube and capped. Myofibrils were thawed by rolling in a water bath for approximately 15 min at room temperature and cooled on ice. Buffers A and B were prepared by adjusting volumes as necessary for required number of wells and stored on ice. 0.5 μL of the compounds to be assayed were added into wells. 25 μL of Buffer A was dispensed into the wells, followed by 25 μL of Buffer B. The wells were measured for absorbance at 340 nm, using a kinetic protocol in which the wells are read every 1.5-2 min for 75 min. Assay data analysis was performed using a python script that filtered the raw data to retain those points falling between a starting and ending time and between a maximum and minimum absorbance, then used the filtered time-domain 340 nm absorbance data in each well to calculate a slope via linear regression analysis in units of mAU/min. Compound slopes were normalized between 100% and 0% activity, where 100% represented the slope of wells containing only compound vehicle, and fit to a 4-parameter logistic model. In addition to the fit parameters, the EC25% values were calculated, relative to the 100% normalized value. Additionally, the Y125 values were calculated for compounds that increased myosin ATP-ase activity. Fit parameters, calculated effective concentrations, filtered raw data, and calculated slopes were exported, in addition to compound-specific graphs of normalized ATPase activity versus concentration in μM. Each value reported in Table 5, Table 6, and Table 7 is either a Y75 value or a Y125 value. Values without a double cross sign, ‡, are Y75 values, which reflect the concentration required to reduce myosin ATP-ase activity by 25% (e.g., Y-axis activity value is 75% of initial value), relative to myosin ATP-ase activity in the absence of exogenous compound.
(§7) Myofibrils from various animals and tissue types were acquired from a variety of sources: rabbit psoas muscle was purchased from Pel-Freez Biologicals (Rogers, AR) and porcine cardiac muscle was purchased from Exemplar Genetics. All myofibrils were prepared using a method based upon those described in Herrmann et al. (1993) and summarized here. […]

[2] = target: T1, Porcine ventricle myofibrils (ventricular myosin ATPase) (Sus scrofa, UniProt P79293); assay: Myofibril ATPase assay, porcine ventricle myofibrils; type: biochemical, porcine (Yucatan minipigs); conditions: porcine ventricle myofibrils
T1 construct: Myofibrils from porcine cardiac muscle was isolated from the left ventricle of Yucatan minipigs; tissue Exemplar Genetics; host or cells: left ventricle of Yucatan minipigs, myofibrils prepared in house
T1 sequence (P79293 whole entry): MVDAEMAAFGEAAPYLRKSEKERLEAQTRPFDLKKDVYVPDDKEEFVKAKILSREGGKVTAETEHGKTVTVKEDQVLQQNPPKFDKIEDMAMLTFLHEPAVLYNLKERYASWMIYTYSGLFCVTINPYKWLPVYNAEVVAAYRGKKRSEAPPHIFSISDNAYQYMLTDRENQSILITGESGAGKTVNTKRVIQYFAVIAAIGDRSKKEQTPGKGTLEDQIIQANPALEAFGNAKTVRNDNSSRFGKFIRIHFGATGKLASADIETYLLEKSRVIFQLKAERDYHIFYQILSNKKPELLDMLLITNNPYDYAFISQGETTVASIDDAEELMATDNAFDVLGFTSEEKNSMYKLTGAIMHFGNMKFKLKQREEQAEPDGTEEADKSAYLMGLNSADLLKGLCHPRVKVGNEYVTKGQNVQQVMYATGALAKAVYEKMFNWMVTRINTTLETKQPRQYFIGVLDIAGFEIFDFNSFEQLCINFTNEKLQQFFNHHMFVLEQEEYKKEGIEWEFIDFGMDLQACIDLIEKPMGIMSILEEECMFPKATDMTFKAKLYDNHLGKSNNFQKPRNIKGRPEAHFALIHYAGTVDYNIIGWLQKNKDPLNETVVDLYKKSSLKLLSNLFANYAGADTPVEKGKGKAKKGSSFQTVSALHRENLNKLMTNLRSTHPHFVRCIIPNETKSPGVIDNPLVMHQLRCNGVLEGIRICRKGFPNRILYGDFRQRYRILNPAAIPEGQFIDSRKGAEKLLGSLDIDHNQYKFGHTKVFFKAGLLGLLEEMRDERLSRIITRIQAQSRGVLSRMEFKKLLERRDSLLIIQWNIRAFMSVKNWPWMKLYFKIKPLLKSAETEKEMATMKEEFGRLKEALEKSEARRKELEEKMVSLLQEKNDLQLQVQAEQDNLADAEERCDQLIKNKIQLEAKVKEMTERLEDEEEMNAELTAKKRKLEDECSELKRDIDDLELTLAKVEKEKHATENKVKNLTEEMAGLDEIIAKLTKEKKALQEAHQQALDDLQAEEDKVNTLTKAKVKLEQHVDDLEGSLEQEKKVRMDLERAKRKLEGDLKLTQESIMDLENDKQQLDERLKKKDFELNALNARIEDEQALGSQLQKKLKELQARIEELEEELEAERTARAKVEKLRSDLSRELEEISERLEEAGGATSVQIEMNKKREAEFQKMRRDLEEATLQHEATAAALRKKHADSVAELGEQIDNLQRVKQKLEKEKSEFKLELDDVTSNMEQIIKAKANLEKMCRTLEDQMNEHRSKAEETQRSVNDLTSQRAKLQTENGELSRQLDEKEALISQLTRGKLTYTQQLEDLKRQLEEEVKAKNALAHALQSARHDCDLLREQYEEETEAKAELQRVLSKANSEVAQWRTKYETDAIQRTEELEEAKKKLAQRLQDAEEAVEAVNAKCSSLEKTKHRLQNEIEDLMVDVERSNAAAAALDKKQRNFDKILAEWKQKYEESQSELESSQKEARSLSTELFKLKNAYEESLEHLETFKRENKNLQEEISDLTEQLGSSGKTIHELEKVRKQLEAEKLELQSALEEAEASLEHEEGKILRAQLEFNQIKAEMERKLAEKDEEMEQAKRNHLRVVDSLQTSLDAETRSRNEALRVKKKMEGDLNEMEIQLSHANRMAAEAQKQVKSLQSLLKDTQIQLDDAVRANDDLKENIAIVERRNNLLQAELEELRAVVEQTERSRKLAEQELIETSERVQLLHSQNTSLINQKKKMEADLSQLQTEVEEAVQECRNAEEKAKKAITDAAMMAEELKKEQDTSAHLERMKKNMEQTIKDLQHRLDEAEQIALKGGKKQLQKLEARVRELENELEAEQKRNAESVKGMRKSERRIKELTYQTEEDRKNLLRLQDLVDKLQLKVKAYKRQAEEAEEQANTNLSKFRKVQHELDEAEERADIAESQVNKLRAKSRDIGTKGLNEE
Protocol: as §1, §2, §3, §4, §5, §6
Cardiac Myofibril Isolation:
Myofibrils from porcine cardiac muscle was isolated from the left ventricle of Yucatan minipigs. Myofibrils were prepared using a method based upon those described in Herrmann et al. (1993) and summarized here. […]

[3] = tested on: Rabbit Psoas myofibrils (skeletal myosin ATPase); assay: Myofibril ATPase assay, rabbit psoas (skeletal) myofibrils; type: biochemical; conditions: rabbit psoas myofibrils
Protocol: as §1, §2, §3, §4, §5, §6
Skeletal Myofibril Isolation:
as §7

[4] = Y75 value (75% activity relative to no compound)

| Atrial EC25 ([1]; Y75 value (no ‡ mark)) [µM] | Ventricular EC25 ([2]; Y75 value (no ‡ mark)) [µM] | Skeletal EC25 ([3]; Y75 value (no ‡ mark)) [µM] | Atrial EC25 [1, 4] [µM] | Ventricular EC25 ([2]; Y75 value) [µM] | Skeletal EC25 ([3]; Y75 value) [µM] | Atrial EC25 (Y125 value, marked ‡) ([1]; Y125 value (125% activity), not a Y75 value) | SMILES |
| --- | --- | --- | --- | --- | --- | --- | --- |
| 53.30 | 80.11 | 100.00 | – | – | – | – | Cc1nnccc1[C@H](C)NC(=O)Cc1c(C)c2cc(F)ccc2[nH]c1=O [compound 1091] |
| 100.00 | 100.00 | 100.00 | – | – | – | – | C[C@@H](NC(=O)C1(c2cc3c(F)c(F)ccc3[nH]c2=O)CC1)c1nccc(C#N)n1 (single isomer, unassigned) [compound 2505] |
| 4.38 | 0.96 | 0.15 | – | – | – | – | C[C@H](NC(=O)Cc1cc2cc(F)c(F)cc2[nH]c1=O)c1ncc(C#N)cc1F (single isomer, unassigned) [compound 4] |
| 100.00 | 100.00 | 2.26 | – | – | – | – | C[C@@H](NC(=O)Cc1c(C#N)c2cc(F)ccc2[nH]c1=O)c1ncc(C#N)cc1F [compound 1094] |
| – | – | – | 0.21 | 11.67 | 0.04 | – | CCCOc1nccc2[nH]c(=O)c(CC(=O)N[C@@H](C)c3ccc(F)cc3F)c(C)c12 [compound 384] |
| 1.90 | 3.67 | 0.21 | – | – | – | – | Cc1nc([C@@H](C)NC(=O)Cc2c(C)c3c(C)c(F)ccc3[nH]c2=O)ncc1C#N (single isomer, unassigned) [compound 4837] |
| – | – | – | 100.00 | 100.00 | 100.00 | – | Cc1nccc2[nH]c(=O)c(CC(=O)N[C@H](CCO)c3ccc(F)cc3F)c(C)c12 (single isomer, unassigned) [compound 341] |
| 100.00 | 100.00 | 0.27 | – | – | – | – | Cc1c(C2(C(=O)N[C@@H]3CCc4cc(C#N)cnc43)CC2)c(=O)[nH]c2ccc(F)c(F)c12 (single isomer, unassigned) [compound 4803] |
| – | – | – | 100.00 | 84.29 | 82.10 | – | Cc1c(CC(=O)N[C@@H](C)c2ccc(F)cc2F)c(=O)[nH]c2ccnc(NCC(C)C)c12 [compound 277] |
| – | – | – | 10.74 | 51.73 | 1.83 | – | Cc1c(CC(=O)N[C@@H](C)c2ccc(F)cc2F)c(=O)[nH]c2ccnc(N3CCOCC3)c12 [compound 345] |
| 83.97 | 88.39 | 74.46 | – | – | – | – | C[C@H](NC(=O)[C@@H](C)c1cc2c(Cl)c(O)ccc2[nH]c1=O)c1ccc(F)cc1F (single isomer, unassigned) [compound 88] |
| – | – | – | 0.22 | 0.30 | 0.02 | – | Cc1c([C@@H](C)C(=O)N[C@@H](C)c2ccc(C#N)cc2F)c(=O)[nH]c2ccnc(C#N)c12 (single isomer, unassigned) [compound 173] |
| 0.73 | 4.00 | 0.83 | – | – | – | – | Cc1c(C2(C(=O)N[C@H](C)c3ncc(C#N)cn3)CC2)c(=O)[nH]c2cccc(C#N)c12 (single isomer, unassigned) [compound 2543] |
| 0.76 | 2.64 | 0.28 | – | – | – | – | Cc1c(F)ccc2[nH]c(=O)c(C(F)(F)C(=O)N[C@H](C)c3ncc(C#N)cn3)c(C#N)c12 (single isomer, unassigned) [Compound 2511] |
| 2.19 | 38.21 | 5.70 | – | – | – | – | C[C@@H](NC(=O)Cc1cc2cc(F)c(F)cc2[nH]c1=O)c1ncc(C#N)cn1 (single isomer, unassigned) [compound 2035] |
| 0.06 | 0.30 | 0.03 | – | – | – | – | C[C@H](NC(=O)Cc1cc2c(F)c(F)ccc2[nH]c1=O)c1ccc(F)cc1F [compound 118] |
| 100.00 | 100.00 | 100.00 | – | – | – | – | COc1ccc2[nH]c(=O)c(C(C)C(=O)N[C@@H](C)c3ccc(F)cc3F)cc2c1Cl (stereo partly drawn) [compound 87] |
| – | – | – | 100.00 | 100.00 | 100.00 | – | Cc1nccc2[nH]c(=O)c(CC(=O)N[C@H](C)c3ccncc3)c(C)c12 (single isomer, unassigned) [compound 333] |
| 0.03 | 0.07 | 0.02 | – | – | – | – | Cc1c(CC(=O)N[C@@H](C)c2ccc(F)cc2F)c(=O)[nH]c2ccc(F)c(Cl)c12 [compound 85] |
| – | – | – | 100.00 | 100.00 | 100.00 | – | Cc1cnncc1[C@H](C)NC(=O)Cc1c(C)c2c(C)nccc2[nH]c1=O [compound 481] |
| 1.39 | 77.93 | 1.22 | – | – | – | – | C[C@H](NC(=O)C1(c2cc3c(F)c(F)ccc3[nH]c2=O)CC1)c1ncc(C#N)cn1 (single isomer, unassigned) [compound 2550] |
| – | – | – | 100.00 | 100.00 | 26.39 | – | Cc1ccc([C@@H](CO)NC(=O)Cc2c(C)c3c(C)nccc3[nH]c2=O)cc1 (single isomer, unassigned) [compound 335] |
| 100.00 | 100.00 | 100.00 | – | – | – | – | Cc1cc(C#N)cnc1[C@H](C)NC(=O)Cc1c(O)c2c(C)c(F)ccc2[nH]c1=O [compound 1121] |
| 0.18 | 0.42 | 0.06 | – | – | – | – | C[C@H](NC(=O)Cc1c(C#N)c2cc(F)ccc2[nH]c1=O)c1ncc(C#N)cc1F [compound 1095] |
| – | – | – | 88.12 | 100.00 | 100.00 | – | Cc1nccc2[nH]c(=O)c(CC(=O)N[C@@H](C)c3ccc(O)nc3)c(C)c12 (single isomer, unassigned) [compound 296] |
| 1.64 | 1.22 | 0.04 | – | – | – | – | C[C@H](NC(=O)Cc1cc2c(F)cc(F)cc2[nH]c1=O)c1ncc(C#N)cc1F [compound 1138] |
| – | – | – | 19.40 | 100.00 | 3.09 | – | Cc1nccc2[nH]c(=O)c(CC(=O)N[C@H](C)c3ccc(C#N)cc3F)c(C#N)c12 [compound 153] |
| 0.06 | 0.07 | 0.03 | – | – | – | – | Cc1c(CC(=O)NC(C)c2cnc(C#N)cn2)c(=O)[nH]c2ccc(F)c(F)c12 (stereo in doubt) [compound 1145, (S)—N-(1-(5-cyanopyrazin-2-yl)ethyl)-2-(5,6-difluoro-4-methyl-2-oxo-1,2-dihydroquinolin-3-yl)acetamide] |
| – | – | – | – | 100.00 | 100.00 | 77.22‡ μM | C[C@H](NC(=O)Cc1c(C(F)(F)F)c2c(C3CC3)nccc2[nH]c1=O)c1ccc(C#N)cn1 (single isomer, unassigned) [compound 3006] |
| – | – | – | 0.65 | 7.29 | 0.17 | – | Cc1c(CC(=O)N[C@@H](C)c2ccc(F)cc2F)c(=O)[nH]c2ccncc12 [compound 448] |
